Experimental data reported in patent publication US6841519B1, “Isoxazoline derivatives and herbicides containing the same as the active ingredient” (Kumiai Chemical Industry Co., Ltd., priority 1999, dated 2005).

Key:
Format in all cases: in vivo
[1] = system: Echinochloa oryzicola Vasing. (Eo); experiment: Test for herbicidal effect by paddy field soil treatment (Test Example 1); conditions: application amount (active ingredient) 100 g/10 a, examined at the 21st day from the treatment, index per Table 40
How it was run: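 Scored on a standard scale at day 21 in the greenhouse: herbicidal effect of wettable powder applied to flooded water (3 cm depth) at 100 g a.i./10 ares, one day after sowing Eo into puddled paddy soil.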

[2] = system: Echinochloa crus-galli (L.) Beauv. var. crusgall (Ec); experiment: Test for herbicidal effect by upland field soil treatment (Test Example 2), Ec
How it was run: (§1)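 Pre-emergence soil treatment: wettable powder diluted in water and sprayed on soil just sown with Ec and Se seeds, delivering 100 g active ingredient per 10 ares in 100 liters per 10 ares. Herbicidal effect was rated against a fixed scale 21 days later, after greenhouse growth.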

[3] = system: Setaria viridis (L.) Beauv. (Se); experiment: Test for herbicidal effect by upland field soil treatment (Test Example 2), Se
How it was run: as §1

rice (Or) = experiment: Test for crop selectivity by paddy field soil treatment (Test Example 4), phytotoxicity to rice; conditions: transplanted two-leaf stage rice, 100 g/10 a active ingredient, 21st day
Protocol: (§2) [table] <Test Example 4> Test For Crop Selectivity By Paddy Field Soil Treatment A paddy field soil was filled in a plastic pot of 100 cm^2 and subjected to puddling. Seeds of Echinochloa oryzicola Vasing. (Eo) were sowed; two-leaf stage seedlings of rice (Or) were transplanted in a depth of 2 cm; and water was filled in a depth of 3 cm. Next day, wettable powders produced in accordance with the Formulation 1 were diluted with water and dropped on the water surface. The application amount of each wettable powder was 100 g per 10 ares in terms of the active ingredient. Then, breeding was made in a greenhouse. At the 21st day from the treatment, the phytotoxicity and herbicidal effect of each wettable powder were examined in accordance with the standard shown in Table 40.

[4] = system: Echinochloa oryzicola Vasing. (Eo); experiment: Test for crop selectivity by paddy field soil treatment (Test Example 4), herbicidal effect on Eo; conditions: 100 g/10 a active ingredient, 21st day
Protocol: as §2

[5] = application amount (active ingredient) 100 g/10 a, examined at the 21st day from the treatment, index per Table 40
[6] = 100 g/10 a active ingredient, examined at 21st day

Row | Compound | Herbicidal effect to Eo [1] | Herbicidal effect to Ec [2, 5] | Herbicidal effect to Se [3, 5] | Phytotoxicity to Or (rice (Or)) | Herbicidal effect to Eo [4] | Herbicidal effect to Ec [2, 6] | Herbicidal effect to Se [3, 6]
1 | CCC1(C)CC(S(=O)(=O)Cc2cccc(C#N)c2)=NO1 (stereo not shown) [Compound 1-328] | 5 (A herbicidal effect or phytotoxicity of 90% or more) | 4 (A herbicidal effect or phytotoxicity of 70% to less than 90%) | 4 (A herbicidal effect or phytotoxicity of 70% to less than 90%) | 0 (A herbicidal effect or phytotoxicity of 0% to less than 10%) | 5 (A herbicidal effect or phytotoxicity of 90% or more) |  | 
2 | CC1(C)CC(S(=O)(=O)Cc2c(N)cccc2F)=NO1 [Compound 1-549] | 5 (A herbicidal effect or phytotoxicity of 90% or more) |  |  | 1 (A herbicidal effect or phytotoxicity of 10% to less than 30%) | 5 (A herbicidal effect or phytotoxicity of 90% or more) | 5 (A herbicidal effect or phytotoxicity of 90% or more) | 5 (A herbicidal effect or phytotoxicity of 90% or more)
3 | CCCCOCc1ccccc1CS(=O)(=O)C1=NOC(C)(C)C1 [Compound 1-615] | 5 (A herbicidal effect or phytotoxicity of 90% or more) |  |  | 1 (A herbicidal effect or phytotoxicity of 10% to less than 30%) | 5 (A herbicidal effect or phytotoxicity of 90% or more) | 5 (A herbicidal effect or phytotoxicity of 90% or more) | 5 (A herbicidal effect or phytotoxicity of 90% or more)
4 | CC(C)C1(C)CC(S(=O)(=O)Cc2c(F)cccc2F)=NO1 (stereo not shown) [Compound 1-368] | 5 (A herbicidal effect or phytotoxicity of 90% or more) | 5 (A herbicidal effect or phytotoxicity of 90% or more) | 4 (A herbicidal effect or phytotoxicity of 70% to less than 90%) | 1 (A herbicidal effect or phytotoxicity of 10% to less than 30%) | 5 (A herbicidal effect or phytotoxicity of 90% or more) |  | 
5 | O=S(=O)(Cc1c(F)cccc1F)C1=NOC2(CCCCC2)C1 [Compound 1-384] | 5 (A herbicidal effect or phytotoxicity of 90% or more) | 5 (A herbicidal effect or phytotoxicity of 90% or more) | 4 (A herbicidal effect or phytotoxicity of 70% to less than 90%) | 0 (A herbicidal effect or phytotoxicity of 0% to less than 10%) | 5 (A herbicidal effect or phytotoxicity of 90% or more) |  | 
6 | CCCOC(=O)c1cccc(Cl)c1CS(=O)(=O)C1=NOC(C)(C)C1 [Compound 1-620] | 5 (A herbicidal effect or phytotoxicity of 90% or more) |  |  | 1 (A herbicidal effect or phytotoxicity of 10% to less than 30%) | 5 (A herbicidal effect or phytotoxicity of 90% or more) | 5 (A herbicidal effect or phytotoxicity of 90% or more) | 5 (A herbicidal effect or phytotoxicity of 90% or more)
7 | CCC1(C)CC(S(=O)(=O)Cc2ccccc2OC)=NO1 (stereo not shown) [Compound 1-228] | 5 (A herbicidal effect or phytotoxicity of 90% or more) | 5 (A herbicidal effect or phytotoxicity of 90% or more) | 5 (A herbicidal effect or phytotoxicity of 90% or more) | 1 (A herbicidal effect or phytotoxicity of 10% to less than 30%) | 5 (A herbicidal effect or phytotoxicity of 90% or more) |  | 
8 | CCCCOC(=O)c1ccccc1CS(=O)(=O)C1=NOC(C)(C)C1 [Compound 1-596] | 5 (A herbicidal effect or phytotoxicity of 90% or more) |  |  | 1 (A herbicidal effect or phytotoxicity of 10% to less than 30%) | 5 (A herbicidal effect or phytotoxicity of 90% or more) | 5 (A herbicidal effect or phytotoxicity of 90% or more) | 5 (A herbicidal effect or phytotoxicity of 90% or more)
